According to patent US7560473B2 (Institute of Pharmacology and Toxicology Academy of …, priority 2001, dated 2009):
Marks after values point to notes of the source that are not given here.

Columns and labels:
[1] = test system: outward potassium currents of rat tail arterial SMCs; experiment: Whole cell recording of outward potassium currents in rat tail arterial SMCs; type: cell-based, Wistar rats; details: for Currents, + Compound: outward potassium current amplitude after compound 100 μmol L^−1 in the bath; for Currents, + Compound / Currents, Control (before compound application): X ± SD n = 5; for Currents, Control (before compound application): outward potassium current amplitude before compound application, same cells
Excerpt: Biological activity experiments 6. The effects of novel compounds on potassium currents in isolated arterial vascular smooth muscle cells (SMCs).
The outward currents were, elicited in rat tail arterial SMCs by superfusing extracellular solution under whole cell recording configuration that the depolarizing pulse were applied from −30 mV to +100 mV with the holding potential of −40 mV in 100 ms, 10 mV clamp steps, a frequency of 5 KHz. The compounds were applied in the bath at the concentrations of 100 μmol L^−1. The amplitude of the outward potassium currents was recorded before and after compound application Values were expressed as means±SD. Statistical significance between two groups was evaluated by student's t-test for paired data * P<0.05 **P<0.01 vs control.
1. Preparation of single smooth muscle cells from rat tail arteries: Male Wistar rats (200-250 g) were killed by exsanguination. The tail artery was dissected out and transferred into cold physiological salt solution (PSS) of the following composition (in mM): NaCl 118.3, KCl 4.7, KH2PO4 1.2, MgSO4 1.2, NaHCO3 25.0, CaCl2 2.5, EDTA 0.026 and Glucose 5.0 pH7.4. With the use of a dissecting microscope, the connective tissues were removed and the artery was cut open longitudinally. Endothelium was removed carefully with a cotton swab then the artery was cut into segments with 1 mm long and placed in 4° C. the extracellular solution containing (in mM) NaCl 130, KCl 5, MgCl2 1.2, HEPES 10, Glucose 10, pH7.2 for 20 min. After this incubation, the medium was changed to enzyme solution which was composed of collagenase I (1 mg ml^−1), papain (5 mg ml^−) and bovine serum albumin (2 mg ml^−1). The tissues, were incubated in this solution for 40 min, and then rinsed three times triturated using a fire-polished Pasteur pipette until the medium turned cloudily. The cell suspension was stored in the refrigerator at 4° C.
3. Whole cell recordings: A bath dish with the smooth muscle cells (SMCs) attached and superfused with the extracellular solution at a flow rate of 2 ml min^−1 was mounted onto the stage of an inverted-phase contrast microscope. The microelectrodes having a resistance of (5-8 MΩ) were made from boroscilicate thin-wall glass capillaries, using an automatic multiple-stage, electronic puller (PP830 Japan) and then heat-polished. After establishing a high resistance seal, the patch membrane was disrupted by negative pressure. A commercial patch clamp amplifier (Axon 200B) was used to generate and apply voltages and sample current signals from the cell.

[2] = test system: rats anesthetized with pentobarbital sodium; experiment: Effects on blood pressure, heart rate, cardiac contraction and dilation in rats anesthetized with pentobarbital sodium; type: in vivo, Wistar rats; parameters: unit not given here; details: change after injection through femoral vein, '+' = increase, all others = decrease; for MBP: mean blood pressure: n = 3~5, doses mg/kg: 2, 8, 12: 10, 3-7, 9-11, 40-44: 5; for DBP: diastolic blood pressure / HR: heart rate / LVSP: left ventricular systolic pressure / SBP: systolic blood pressure / Vpm: the physiological velocity of contractile element shorting / −dp/dtmax: the maximal rate of the decrease of left ventricular pressure: mean, n = 3~5, doses mg/kg: 2, 8, 12: 10, 3-7, 9-11, 40-44: 5
Description: Biological activity experiment 1. The effects of 16 compounds represented by formula I on blood pressure, heart rate, cardiac contraction and dilation in rats anesthetized with pentobarbital sodium.
The methods of biological activity experiment 1 were as follows: Male Wistar rats, weighing 280±30 g were purchased from the experimental animal center of Academy of Military Medical Sciences. Rats were anesthetized with pentobarbital sodium (45 mg/kg) by peritoneal injection. A PE50 polyethylene catheter was inserted into the left ventricle through right carotid artery for cardiac function measurement with a pressure energe exchanger, wherein the signal is put into a SMUP-PC biosignal processing system. Cardiac functional parameters such as HR, LVSP, +dp/dtmax, −dp/dtmax and Vpm were recorded. Another two PE50 polyethylene catheters were inserted into the right femoral artery and vein respectively for blood pressure measurement wherein the artery cathether was linked to a four-channel physiology recorder (RM-6000) through a MPU-0.5A Type pressure energe exchanger, which recorded SBP, DBP and MBP, while the vein catheter was used for compound administration. The methods were described by Liu Wei et al: Liu Wei, Wang Hai, Xiao Wen-Bin. […] Bull Acad Mil Med Sci 1996;20(4):245˜248.

[3] = target: T1, ATP-sensitive potassium channels in vascular smooth muscles (Rattus norvegicus, UniProt Q63563); experiment: Inhibition of specific binding of [^3H]P1075 in endothelium-removed rat aorta; parameters: species or system Wistar rat; details: [^3H] P1075 5 nmol L^−1, 90 minutes at 37° C., endothelium-removed rat aorta
T1 construct: The aorta was cut into about 3-5 mm arterial rings and the vascular endothelium was scraped off; from tissue; host or cells: endothelium-removed aortic rings of male Wistar rats

[4] = target: T1, ATP-sensitive potassium channels in vascular smooth muscles; experiment: Association kinetics of [^3H]P1075 binding in aortic rings; parameters: species or system Wistar rat; details: 37° C.; drug M: Compound 1 10^−4, Glibencamide 10^−5, ATP 10^−2, ADP 10^−3, UDP 5 × 10^−5, GTP 10^−3, Ade 10^−3; control 4.36 ± 0.45; means ± SD, n = 4~10
Excerpt: Biological activity experiment 4. Allosteric regulation of novel compounds on ATP-sensitive potassium channels in vascular smooth muscles.
To study the allosteric regulation of compound 1 on ATP-sensitive potassium channels in vascular smooth muscles, the radio-labled-ligand was used in the biological activity experiment 4.
1. The allosteric regulation of compound 1 on the binding sites for the selective KATP blocker glibenclamide in vascular smooth muscles was studied as follows: After decapitated, the male Wistar rat (340±20 g) was immediately incised open the thoracic cavity. The aorta was dissected and immersed in the 4° C. buffer containing 10 mM HEPES to wash off the blood, then carefully extirpated the fat, peripheral connective tissues and thrombus. The aorta was cut into about 3-5 mm arterial rings and the vascular endothelium was scraped off with wet tampon. The arterial rings were blotted, weighted and transferred into the tubes containing proper amount of ice colded physiological saline buffer. In the association kinetics experiment, the arterial circles in the tubes were incubated with, compound 1(10^−4M), pinacidil(10^−4M), ATP(10^−2M), ADP(10^−3M), Ade(10^−3M), […] and equal volume of buffer respectively for 10 min in 25° C. water bath, and then added [^3H]-glibenclamide(3 nM). At 5,10,15,20,30,60,90 and 120 min after incubation, 9 mL ice colded Tris buffer (50 mM) was added to terminate the reaction. After washing off the free and bound [^3H]-glibenclamide, the aorta was blotted, transferred to a scintillator, added 50 uL 30% H2O2 and reacted for 2 h at 80° C. After cooling, 2.5 mL ethyl glycol and 5 mL 1% B-BPD xylene were added in sequence, kept stationary for 8 h and measured under a scintillometer for cpm value. The resulting data were fit into a regression line with In[BEQ/(BEQ-Bt)]vs.t and the parameters for association kinetics were obtained. In the disassociation kinetics experiments, the aorta treated as described above and [^3H]-glibenclamide were incubated for 60 min at 25° C., and then 30 uM glibenclamide was added. 0,5,15,30,60,90 and 120 min later, the cpm values for the complex of [^3H]-glibenclamide and KATP were measured. The resulting data were fit into a regression line with In(B/BEQ)]vs.t and the parameters for disassociation kinetics were obtained. 2. The allosteric regulation of compound 1 on the binding sites for the selective KATP activator P1075 in vascular smooth muscles was studied with the method as described above, but some conditions should be changed as follows: the incubation temperature was 37° C. instead of 25° C.;P1075 was used instead of glibenclamide; In the association kinetics experiments, the time points for sampling were 5,10,15,20,30,45,60 and 90 min, while in the disassociation kinetics experiments, that were 1,3,5,10,20,30,45 and 60 min. Biological activity experiment 5. The effects of compound 1 on the specific binding of high selective activator [^3H]P1075 with ATP-sensitive potassium channels in vascular smooth muscles.

SHRsp = experiment: Prophylaxis and treatment of SHRsp cerebral apoplexy; type: in vivo, rats; details: 40 mg · kg^−1d^−1 fed
Description: Biological activity experiment 8 the prophylaxis and treatment of cerebral apoplexy with compound 1 of formula Ia
The methods of biological activity experiments were carried out as follows: Desired concentration of compound 1 was prepared with distilled water, while desired concentration of nimodipine was prepared with market available Jinglongyu^T oil. 30 male and 30 female SHRsp (10 weeks old, 120-180 g) were purchased from the vascular disease research center of Academy of Military Medical Science. All SHRsp were divided randomly into five groups based on blood pressure, body weight and sex: control group (fed with equal amount of Jinglongyu^T oil), […], […], […], and 4.0 mg.kg^−1d^−1 nimodipine treated group. Each group contained 12 animals and 4-5 animals were fed in a cage. The feedstaff (containing 23-24% protein) was purchased from experimental animal center of Academy of Military Medical Science. The animals were fed with tap water containing 1% NaCl to accelerate the onset of cerebral apoplexy. 12 normal WKY rats (with the same age and sex with the above) were selected as control, and fed with tap water and the same feedstuff. When reached 11 weeks old, the animals were fed with drugs for experiments.

T1 sequence (Q63563 1-1545 isoform Q63563-2): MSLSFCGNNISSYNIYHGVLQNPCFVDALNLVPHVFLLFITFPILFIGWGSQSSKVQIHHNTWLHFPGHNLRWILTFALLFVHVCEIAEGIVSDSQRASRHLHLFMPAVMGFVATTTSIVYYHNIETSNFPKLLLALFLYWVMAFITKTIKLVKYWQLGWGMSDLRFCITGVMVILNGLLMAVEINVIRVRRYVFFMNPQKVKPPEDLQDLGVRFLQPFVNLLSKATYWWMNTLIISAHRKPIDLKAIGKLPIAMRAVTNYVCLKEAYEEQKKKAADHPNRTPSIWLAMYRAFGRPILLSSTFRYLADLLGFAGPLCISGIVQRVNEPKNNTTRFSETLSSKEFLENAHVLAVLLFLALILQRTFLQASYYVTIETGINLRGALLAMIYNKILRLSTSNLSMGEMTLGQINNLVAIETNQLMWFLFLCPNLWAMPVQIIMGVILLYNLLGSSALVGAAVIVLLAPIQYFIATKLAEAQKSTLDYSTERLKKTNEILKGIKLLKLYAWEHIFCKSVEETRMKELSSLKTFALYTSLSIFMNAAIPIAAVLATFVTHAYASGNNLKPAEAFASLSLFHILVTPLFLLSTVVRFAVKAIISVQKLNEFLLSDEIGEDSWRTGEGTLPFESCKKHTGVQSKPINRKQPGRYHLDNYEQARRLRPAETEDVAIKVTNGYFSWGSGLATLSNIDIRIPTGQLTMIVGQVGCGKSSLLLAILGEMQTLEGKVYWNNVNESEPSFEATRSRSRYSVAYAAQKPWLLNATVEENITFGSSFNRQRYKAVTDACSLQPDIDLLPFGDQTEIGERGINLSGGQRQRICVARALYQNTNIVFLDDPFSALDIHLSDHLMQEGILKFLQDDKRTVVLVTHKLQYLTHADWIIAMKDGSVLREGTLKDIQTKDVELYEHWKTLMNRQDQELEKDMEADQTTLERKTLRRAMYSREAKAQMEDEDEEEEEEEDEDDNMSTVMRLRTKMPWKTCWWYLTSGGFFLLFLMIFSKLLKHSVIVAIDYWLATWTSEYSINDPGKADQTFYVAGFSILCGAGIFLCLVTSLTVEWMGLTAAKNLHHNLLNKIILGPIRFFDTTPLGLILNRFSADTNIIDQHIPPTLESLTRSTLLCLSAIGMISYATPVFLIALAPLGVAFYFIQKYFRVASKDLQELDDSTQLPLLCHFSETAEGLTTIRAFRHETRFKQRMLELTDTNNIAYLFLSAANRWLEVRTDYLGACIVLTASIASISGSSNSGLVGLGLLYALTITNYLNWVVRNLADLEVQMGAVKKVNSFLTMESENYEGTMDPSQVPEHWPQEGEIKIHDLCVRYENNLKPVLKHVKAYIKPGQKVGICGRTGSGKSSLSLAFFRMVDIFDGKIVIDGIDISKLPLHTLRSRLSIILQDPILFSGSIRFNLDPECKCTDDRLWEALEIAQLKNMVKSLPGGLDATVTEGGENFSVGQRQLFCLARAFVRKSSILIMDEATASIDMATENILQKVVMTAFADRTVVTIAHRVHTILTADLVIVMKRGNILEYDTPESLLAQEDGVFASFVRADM
T1 sequence (Q63664 whole entry partner): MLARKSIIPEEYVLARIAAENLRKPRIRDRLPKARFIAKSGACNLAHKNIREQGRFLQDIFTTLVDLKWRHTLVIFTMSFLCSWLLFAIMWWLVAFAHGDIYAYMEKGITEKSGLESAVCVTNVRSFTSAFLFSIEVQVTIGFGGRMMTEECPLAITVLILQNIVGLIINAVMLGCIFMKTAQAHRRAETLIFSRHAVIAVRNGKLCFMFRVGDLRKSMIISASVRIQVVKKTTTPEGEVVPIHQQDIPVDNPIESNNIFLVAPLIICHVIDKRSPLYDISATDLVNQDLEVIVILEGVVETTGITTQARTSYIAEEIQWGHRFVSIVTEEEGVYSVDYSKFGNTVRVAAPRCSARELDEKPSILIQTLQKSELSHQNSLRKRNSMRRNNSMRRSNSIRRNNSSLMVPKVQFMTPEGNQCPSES

| Compound | Currents, + Compound [1] | Currents, Control (before compound application) [1] | MBP: mean blood pressure [2] | DBP: diastolic blood pressure [2] | HR: heart rate [2] | LVSP: left ventricular systolic pressure [2] | SBP: systolic blood pressure [2] | Vpm: the physiological velocity of contractile element shorting [2] | −dp/dtmax: the maximal rate of the decrease of left ventricular pressure [2] | further results |
| --- | --- | --- | --- | --- | --- | --- | --- | --- | --- | --- |
| CNC(C)(C)C(C)C [compound 3] | 0.60 ± 0.34 nA | 0.56 ± 0.31 nA | 22 | 19 | 43 | 111 | 29 | 0.49 | 157 | – |
| CCC(C)(C)N=C(NC#N)Nc1cccnc1 [P1075, reference compound] | – | – | – | – | – | – | – | – | – | IC50 [3]: 9.1 ± 1.3 nM |
| CC(C)C(C)(C)NCC1CC1 [compound 15, N-cyclopropylmethyl-2,3-dimethyl-2-butylamine] | 1.30 ± 0.45* nA | 0.83 ± 0.24 nA | – | – | – | – | – | – | – | – |
| Nc1nc2c(ncn2[C@@H]2O[C@H](COP(=O)(O)OP(=O)(O)OP(=O)(O)O)[C@@H](O)[C@H]2O)c(=O)[nH]1 [GTP] | – | – | – | – | – | – | – | – | – | Association kinetics kobs of [^3H]P1075 binding [4]: 3.86 ± 0.19 ×10^−2 nM^−1 · min^−1 |
| CC(C)C(C)(C)NC(=O)c1cccnc1 [compound 39] | 0.51 ± 0.22 nA | 0.46 ± 0.14 nA | – | – | – | – | – | – | – | – |
| CCNC(C)(C)C(C)C [compound 4] | 0.69 ± 0.14** nA | 0.61 ± 0.12 nA | 25 | 23 | 44 | 146 | 31 | 0.45 | 177 | – |
| CCCCNC(C)(C)C(C)C [compound 6, N-butyl-2,3-dimehyl-2-butylamine] | 1.18 ± 0.54* nA | 0.49 ± 0.23 nA | 49 | 43 | 111 | 263 | 61 | 0.98 | 276 | – |
| C=CCNC(C)(C)C(C)C [compound 25, N-allyl-2,3-dimethyl-2-butylamine] | 1.46 ± 0.50** nA | 0.68 ± 0.19 nA | – | – | – | – | – | – | – | stimulation of potassium channel activities (in words) ([1]; 100 μmol L^−1, rat tail arterial SMCs): Maximum potency |
| CCC(C)NC(C)(C)C(C)C (centres unmarked) [compound 13, N-(1-methylpropyl)-2,3-dimethyl-2-butylamine] | 0.85 ± 0.31** nA | 0.55 ± 0.34 nA | – | – | – | – | – | – | – | – |
| COCCOC(=O)C1=C(C)NC(C)=C(C(=O)OC(C)C)C1c1cccc([N+](=O)[O-])c1 (centres unmarked) [Nimodipine, nimodipine, reference compound] | – | – | – | – | – | – | – | – | – | Survival time (SHRsp; control 4.6 ± 3.8, means ± SD): 11.1 ± 2.7 days; Period needed for onset of cerebral apoplexy (SHRsp; control 48.3 ± 7.4, means ± SD): 66.0 ± 14.8 days; Death rate of cerebral apoplexy (SHRsp; n 12, control 50.0): 9.1* %; Rate of cerebral apoplexy (SHRsp; n 12, control 83.3): 36.4* % |
| CC(C)C(C)(C)NCc1ccccc1 [compound 24] | 0.63 ± 0.19 nA | 0.65 ± 0.19 nA | – | – | – | – | – | – | – | – |
| CC(C)C(C)(C)N [compound 2] | 1.01 ± 0.57 nA | 0.91 ± 0.49 nA | 24 | 15 | 20 | 116 | 38 | 1.16 | 54 | – |
